{"source": "paper PMC4061482", "about": "(Frontiers in Oncology, 2014)", "key": {"LAPC4 AKR1C3 cells [1]": {"tested_on": "LAPC4 AKR1C3 cells", "experiment": "Cell proliferation (sulforhodamine B), 5 days", "assay_type": "cell-based, human", "procedure": "(§1) Cells were seeded into 96-well plates in hormone-deprived media at appropriate seeding densities (5000–20,000 cells per well) to reach approximately 70% confluency at the time of sampling and left to settle for 48 h at 37°C and 5% CO2. […] The plates were returned to the incubator for 5 days before fixing in 10% trichloroacetic acid (Merck Millipore) at 4°C for 1 h and staining with 0.4% sulforhodamine B (Sigma-Aldrich) in 1% acetic acid for 30 min in the dark at room temperature. Plates were washed in 1% acetic acid, dried, and incubated with unbuffered Tris base (10 mM; Serva) for 30 min on a plate shaker in the dark to solubilize the stain. The plates were read on a BioTek EL808 microplate reader at an absorbance of 490 nm with a reference wavelength of 450 nm.\n(§2) Finally, we investigated whether inhibiting AKR1C3-dependent testosterone or 17β-estradiol production could prevent androstenedione- or estrone-stimulated cell proliferation in CRPC or ER-positive breast cancer cells."}, "LAPC4 wild-type cells": {"tested_on": "LAPC4 wild-type cells", "experiment": "Cell proliferation (sulforhodamine B), 5 days", "assay_type": "cell-based, human", "settings": "10 μM", "procedure": "as §1, §2"}, "22RV1 cells [2]": {"tested_on": "22RV1 cells", "experiment": "Cell proliferation (sulforhodamine B), 5 days", "assay_type": "cell-based, human", "settings": "10 μM", "procedure": "as §1, §2"}, "22RV1 cells [3]": {"tested_on": "22RV1 cells", "experiment": "Testosterone ELISA after androstenedione stimulation", "assay_type": "cell-based, human", "procedure": "Cells were seeded into 96-well plates in hormone-deprived media at appropriate seeding densities [10,000–50,000 cells per well for all lines except HCC1500 (100,000 cells per well; 11β-PGF2α ELISA)] to reach approximately 70% confluency at the time of sampling and were left to settle for 24 h at 37°C and 5% CO2. […] removed for analysis of 11β-PGF2α, testosterone, or 17β-estradiol by ELISA as per manufacturer’s instructions (11β-PGF2α and testosterone ELISA, Cayman Chemical Company; 17β-estradiol ELISA, Oxford Biomedical Research), and cells were fixed for sulforhodamine B analysis as described below. Each ELISA plate was read at a wavelength of 405 nm (11β-PGF2α and testosterone) or 650 nM (17β-estradiol) on a SpectraMax M2 microplate reader (Molecular Devices) and quantitated against a standard curve generated in hormone-deprived culture media. Cross-reactivity to PGD2, androstenedione, or estrone was accounted for by adding these to cell-free wells of each ELISA plate.\nSince AKR1C3 has been implicated in the development of CRPC because of its ability to produce testosterone intratumorally from circulating androstenedione, we determined testosterone concentrations in the prostate cancer cell lines and known high and low AKR1C3-expressing cells after stimulation with androstenedione for 24 h."}, "MCF7 cells": {"tested_on": "MCF7 cells", "experiment": "Cell proliferation (sulforhodamine B), 5 days", "assay_type": "cell-based, human", "procedure": "as §1, §2\nNeither androstenedione nor estrone-stimulated cell proliferation in the HCT116 AKR1C3 and wild-type cell lines (data not shown)."}, "LAPC4 AKR1C3 cells [4]": {"tested_on": "LAPC4 AKR1C3 cells", "experiment": "PSA concentration after androstenedione stimulation", "assay_type": "cell-based", "settings": "Homo sapiens, LAPC4, 24 h, read-out: Inhibition of PSA formation attributable to androstenedione stimulation", "procedure": "(§3) Cells were seeded at 20,000 cells per well (LAPC4, LAPC4 AKR1C3) or 50,000 cells per well (22RV1) into 96-well plates in hormone-deprived media and left to settle for 24 h at 37°C and 5% CO2. […] The plates were returned to the incubator for 24 h, before the cell supernatant was removed and frozen for PSA analysis. Determination of total PSA concentration was carried out at LabPLUS, Auckland City Hospital, by immunoassay on a Cobas® e601 analyzer according to manufacturer’s instructions (Roche).\n(§4) Next, PSA expression was determined in the CRPC cell lines that were sensitive to SN33638-mediated inhibition of testosterone (LAPC4 AKR1C3 and 22RV1 with LAPC4 wild-type cells acting as a negative control) as a biomarker of AR activity. […] Androstenedione stimulation promoted PSA production in all three cell lines, with the highest PSA levels observed in LAPC4 AKR1C3 cells."}, "22RV1 cells [5]": {"tested_on": "22RV1 cells", "experiment": "PSA concentration after androstenedione stimulation", "assay_type": "cell-based", "settings": "Homo sapiens, 10 nM androstenedione, 24 h, read-out: Inhibition of PSA formation attributable to androstenedione stimulation", "procedure": "as §3, §4"}, "AKR1C3": {"molecular_target": "T1, AKR1C3 (Homo sapiens, UniProt P42330)", "T1 sequence (P42330 1-323)": "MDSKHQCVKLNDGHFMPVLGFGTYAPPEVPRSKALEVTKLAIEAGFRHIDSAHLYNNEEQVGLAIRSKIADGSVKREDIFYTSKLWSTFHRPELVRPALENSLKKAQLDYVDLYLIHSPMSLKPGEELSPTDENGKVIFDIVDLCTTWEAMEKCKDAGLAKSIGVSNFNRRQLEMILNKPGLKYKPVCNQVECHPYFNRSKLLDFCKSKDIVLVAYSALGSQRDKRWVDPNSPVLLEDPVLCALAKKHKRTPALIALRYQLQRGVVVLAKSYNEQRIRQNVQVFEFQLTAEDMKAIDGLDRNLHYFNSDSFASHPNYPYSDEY", "experiment": "11β-PGF2α formation from PGD2 by ELISA in the cell line panel", "assay_type": "cell-based", "settings": "10 μM; all cell lines that expressed AKR1C3; 28 nM PGD2, 24 h", "procedure": "Cells were seeded into 96-well plates in hormone-deprived media at appropriate seeding densities [10,000–50,000 cells per well for all lines except HCC1500 (100,000 cells per well; 11β-PGF2α ELISA)] to reach approximately 70% confluency at the time of sampling and were left to settle for 24 h at 37°C and 5% CO2. Inhibitors were added to the plates at single or multiple concentrations for 1 h prior to administration of equimolar (28 nM) concentrations of PGD2 (11β-PGF2α ELISA), androstenedione (testosterone ELISA), or estrone (17β-estradiol ELISA). The plates were returned to the incubator for a further 24 h before cell supernatant was removed for analysis of 11β-PGF2α, testosterone, or 17β-estradiol by ELISA as per manufacturer’s instructions (11β-PGF2α and testosterone ELISA, Cayman Chemical Company; 17β-estradiol ELISA, Oxford Biomedical Research), and cells were fixed for sulforhodamine B analysis as described below. Each ELISA plate was read at a wavelength of 405 nm (11β-PGF2α and testosterone) or 650 nM (17β-estradiol) on a SpectraMax M2 microplate reader (Molecular Devices) and quantitated against a standard curve generated in hormone-deprived culture media. […]\nThe PGD2 11-ketoreductase activity of AKR1C3 was determined by stimulating the cell line panel with PGD2 for 24 h, then detecting 11β-PGF2α levels by ELISA."}}}
{"smiles": "CC1CCCCN1S(=O)(=O)c1ccc(N2CCCC2=O)cc1", "note": "(stereo not drawn) [SN33638]", "values": [{"measurement": "Reduction in androstenedione-stimulated cell proliferation", "setting": "LAPC4 AKR1C3 cells [1]; 10 μM, 1 nM androstenedione, non-significant", "result": 45.9, "unit": "%"}, {"measurement": "inhibition at 10 µM", "setting": "LAPC4 AKR1C3 cells [1]; Homo sapiens, LAPC4, 120 h, 0.1 nM androstenedione, read-out: Inhibition of androstenedione-stimulated cell proliferation", "result": 101, "unit": "%"}, {"measurement": "Effect on androstenedione-stimulated cell proliferation", "setting": "LAPC4 wild-type cells", "result": "no effect"}, {"measurement": "Effect on androstenedione-stimulated cell proliferation", "setting": "22RV1 cells [2]", "result": "no effect"}, {"measurement": "Effect on testosterone levels", "setting": "22RV1 cells [3]; 5 days after stimulation with up to 10 nM androstenedione, data not shown", "result": "no inhibitory effect"}, {"measurement": "inhibition at 10 µM", "setting": "22RV1 cells [3]; Homo sapiens, 22Rv1, 10 μM, 28 nM androstenedione, 24 h, read-out: Inhibition of testosterone levels", "result": 50.8, "unit": "%"}, {"measurement": "Reduction of unstimulated cell proliferation", "setting": "MCF7 cells; 10 μM", "result": 7.3, "unit": "%"}, {"measurement": "inhibition at 10 µM", "setting": "MCF7 cells; Homo sapiens, MCF7, 120 h, 10 nM estrone, read-out: Inhibition of estrone-stimulated cell proliferation", "result": 14.9, "unit": "%"}, {"measurement": "inhibition at 10 µM", "setting": "LAPC4 AKR1C3 cells [4]; 1 nM androstenedione", "result": 90.8, "unit": "%"}, {"measurement": "inhibition at 10 µM", "setting": "LAPC4 AKR1C3 cells [4]; 10 nM androstenedione", "result": 57.4, "unit": "%"}, {"measurement": "inhibition at 10 µM", "setting": "22RV1 cells [5]", "result": 44.9, "unit": "%"}, {"measurement": "Reduction of 11β-PGF2α levels", "setting": "AKR1C3", "result": "≥ 80", "unit": "%"}]}
